Measured values: article PMC8308585, “Design and Synthesis of Novel Thiazolo[5,4-d]pyrimidine Derivatives with High Affinity for Both the Adenosine A1 and A2A Receptors, and Efficacy in Animal Models of Depression” (Pharmaceuticals, 2021)
Read-outs that look alike come from different tables or passages of the source.

How the values were obtained:
hA3 AR = biological target: T1, hA3 AR (Homo sapiens, UniProt P0DMS8); assay: Radioligand binding, displacement of [3H]-HEMADO at hA3 AR in CHO cells; conditions: displacement of specific [3H]-HEMADO binding, mean ± SEM
T1 construct: expressed in transfected cells; host or cells: CHO cells
T1 sequence (P0DMS8 1-318): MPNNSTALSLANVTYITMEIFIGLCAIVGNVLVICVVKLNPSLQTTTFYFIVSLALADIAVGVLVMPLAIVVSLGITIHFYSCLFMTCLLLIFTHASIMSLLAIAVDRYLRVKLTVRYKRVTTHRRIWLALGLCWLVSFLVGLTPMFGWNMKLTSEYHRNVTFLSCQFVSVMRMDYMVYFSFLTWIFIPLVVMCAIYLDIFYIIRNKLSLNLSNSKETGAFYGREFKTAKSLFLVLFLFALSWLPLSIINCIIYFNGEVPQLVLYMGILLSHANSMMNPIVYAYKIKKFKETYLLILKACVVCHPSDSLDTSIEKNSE
Method: (§1) CHO cells, stably expressing hARs, were grown adherently and maintained in Dulbecco’s modified Eagle’s medium (DMEM) with nutrient mixture F12 supplemented with 10% fetal bovine serum (FBS), penicillin (100 µg/mL), streptomycin (100 µg/mL), sodium pyruvate (1 mM), and geneticin (0.1 mg/mL).
(§2) Briefly, cells were homogenized in cold lysis buffer (5 mM Tris HCl, 2 mM EDTA, pH 7.4), centrifuged at low speed spin for 10 min, and subsequently, the supernatant was spun at 37,000 rpm. Membrane pellet was resuspended in the specific buffer and stored at −80 °C.

human A1 AR = biological target: T2, human A1 AR (Homo sapiens, UniProt P30542); assay: Radioligand binding, displacement of [3H]-CCPA at hA1 AR in CHO cells; conditions: displacement of specific [3H]-CCPA binding, n = 3–6, mean ± SEM
T2 construct: expressed in transfected cells; host or cells: CHO cells
T2 sequence (P30542 1-326): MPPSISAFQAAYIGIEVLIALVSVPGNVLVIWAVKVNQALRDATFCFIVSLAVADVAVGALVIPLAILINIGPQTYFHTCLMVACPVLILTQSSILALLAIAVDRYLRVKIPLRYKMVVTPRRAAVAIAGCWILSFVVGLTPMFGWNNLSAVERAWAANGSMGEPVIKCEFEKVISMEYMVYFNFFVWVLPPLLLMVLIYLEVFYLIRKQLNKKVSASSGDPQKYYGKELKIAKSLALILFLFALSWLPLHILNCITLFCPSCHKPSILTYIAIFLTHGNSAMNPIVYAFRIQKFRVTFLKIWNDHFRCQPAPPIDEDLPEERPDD
Method: as §1, §2

hA2B AR = biological target: T3, hA2B AR (Homo sapiens, UniProt P29275); assay: Inhibition of NECA-stimulated adenylyl cyclase activity (cAMP) in CHO cells expressing hA2B AR; type: cell-based; conditions: mean ± SEM
T3 construct: expressed in transfected cells; host or cells: CHO cells
T3 sequence (P29275 1-332): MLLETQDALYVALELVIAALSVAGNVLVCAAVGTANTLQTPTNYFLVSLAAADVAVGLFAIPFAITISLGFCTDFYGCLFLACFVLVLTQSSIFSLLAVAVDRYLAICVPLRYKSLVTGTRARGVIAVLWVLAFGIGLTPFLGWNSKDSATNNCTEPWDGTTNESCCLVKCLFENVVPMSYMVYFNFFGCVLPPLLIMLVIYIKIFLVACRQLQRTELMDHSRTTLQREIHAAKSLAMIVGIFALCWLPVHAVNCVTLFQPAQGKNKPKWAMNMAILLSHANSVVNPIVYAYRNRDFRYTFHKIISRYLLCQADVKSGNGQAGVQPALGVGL
Method: Compounds 1–19 were evaluated for their binding affinity at hA1, hA2A, and hA3 ARs, stably transfected in Chinese hamster ovary (CHO) cells. […].
The binding affinity of the novel compounds was evaluated using radioligand competition experiments in CHO cells stably transfected with hA1 AR, hA2A AR, and hA3 AR subtypes. […]; The potency at hA2B AR, expressed on CHO cells, was determined by inhibition of NECA-stimulated adenylyl cyclase activity. […]
Binding data and concentration–response curves were fitted by a nonlinear regression with the Prism program (GraphPAD Prism 7 Software, San Diego, CA, USA). Each concentration was tested 3–5 times in duplicate and the Ki or IC50 (the concentration of antagonists that produces 50% inhibition of the agonist effect) values are given as the mean ± standard error (S.E.).

human A2A AR = biological target: T4, human A2A AR (Homo sapiens, UniProt P29274); assay: Radioligand binding, displacement of [3H]-NECA at hA2A AR in CHO cells;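 further: competition binding on membranes from CHO cells stably transfected with human A2A receptor, binding curves fitted by nonlinear regression in GraphPad Prism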
T4 construct: expressed in transfected cells; host or cells: CHO cells
T4 sequence (P29274 whole entry): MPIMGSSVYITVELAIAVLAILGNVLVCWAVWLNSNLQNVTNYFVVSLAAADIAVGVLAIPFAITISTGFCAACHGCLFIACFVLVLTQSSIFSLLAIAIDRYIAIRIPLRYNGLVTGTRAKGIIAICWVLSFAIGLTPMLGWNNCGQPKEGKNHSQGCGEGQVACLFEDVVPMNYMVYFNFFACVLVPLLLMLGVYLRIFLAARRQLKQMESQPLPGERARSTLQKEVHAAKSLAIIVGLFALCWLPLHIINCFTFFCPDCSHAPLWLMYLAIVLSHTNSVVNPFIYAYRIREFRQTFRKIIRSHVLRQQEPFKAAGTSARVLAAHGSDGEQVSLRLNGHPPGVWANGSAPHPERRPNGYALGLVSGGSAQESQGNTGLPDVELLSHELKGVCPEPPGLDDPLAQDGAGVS
Method: as §1, §2

[1] = displacement of specific [3H]-NECA binding, CHO cells, mean ± SEM, read-out: hA2A Ki
[2] = hA2A AR, as listed in Table 3, read-out: pKi A2A (converted)

| Compound | Ki (hA3 AR) [nM] | Ki (human A1 AR) [nM] | IC50 (hA2B AR) [nM] | Ki (human A2A AR; [1]) [nM] | Ki (human A2A AR; [2]) [nM] |
| --- | --- | --- | --- | --- | --- |
| Nc1nc(-c2ccccc2)nc2sc(Cc3ccccc3F)nc12 [compound 15, 2-(2-Fluorobenzyl)-5-phenylthiazolo[5,4-d]pyrimidin-7-amine] | 72.1 ± 5.3 | 1.9 ± 0.05 | > 30000 | 1.8 ± 0.6 | 1.78 |
| Nc1nc(-c2ccccc2)nc2sc(Cc3ccccc3Cl)nc12 [compound 6, 2-(2-Chlorobenzyl)-5-phenylthiazolo[5,4-d]pyrimidin-7-amine] | 143 ± 0.2 | 2.8 ± 0.05 | > 30000 | 0.4 ± 0.04 | 0.398 |
| COc1ccccc1Cc1nc2c(N)nc(-c3cccc(C#N)c3)nc2s1 [compound 11, 3-(7-Amino-2-(2-methoxybenzyl)thiazolo[5,4-d]pyrimidin-5-yl)benzonitrile] | 54.2 ± 1.2 | 28.4 ± 4 | 1540 ± 35 | 2.4 ± 0.09 | – |
| N#Cc1cccc(-c2nc(N)c3nc(Cc4ccccc4Cl)sc3n2)c1 [compound 7, 3-(7-Amino-2-(2-chlorobenzyl)thiazolo[5,4-d]pyrimidin-5-yl)benzonitrile] | 295.1 ± 0.6 | 72.8 ± 15 | 6785 ± 62 | 6.3 ± 0.18 | – |
| Nc1nc(-c2ccco2)nc2sc(Cc3ccccc3)nc12 [compound 4, 2-Benzyl-5-(furan-2-yl)thiazolo[5,4-d]pyrimidin-7-amine] | 65.4 ± 12 | 15.5 ± 3.6 | 794 ± 196 | 1.1 ± 0.2 | 1.1 |
| COc1ccccc1Cc1nc2c(N)nc(-c3ccc(C)o3)nc2s1 [compound 14, 2-(2-Methoxybenzyl)-5-(5-methylfuran-2-yl)thiazolo[5,4-d]pyrimidin-7-amine] | 18.2 ± 5 | 11.5 ± 2.8 | 2420 ± 545 | 2 ± 0.6 | – |
| N#Cc1cccc(-c2nc(N)c3nc(Cc4ccccc4)sc3n2)c1 [compound 2, 3-(7-Amino-2-benzylthiazolo[5,4-d]pyrimidin-5-yl)benzonitrile] | 76 ± 0.9 | 51.7 ± 11.7 | > 30000 | 4.6 ± 0.9 | – |
| Nc1nc(-c2ccccc2)nc2sc(Cc3ccccc3)nc12 [compound 1, 2-Benzyl-5-phenylthiazolo[5,4-d]pyrimidin-7-amine] | 26.6 ± 6 | 20 ± 4.3 | > 30000 | 2.9 ± 0.04 | 2.82 |
| Nc1nc(-c2cccc(O)c2)nc2sc(Cc3ccccc3)nc12 [compound 3, 3-(7-Amino-2-benzylthiazolo[5,4-d]pyrimidin-5-yl)phenol] | 104 ± 21.1 | 15.7 ± 3.4 | > 30000 | 7.3 ± 1 | – |
| COc1ccccc1Cc1nc2c(N)nc(-c3cccc(O)c3)nc2s1 [compound 12, 3-(7-Amino-2-(2-methoxybenzyl)thiazolo[5,4-d]pyrimidin-5-yl)phenol] | 79.6 ± 2.3 | 10.2 ± 0.3 | 7420 ± 876 | 1.9 ± 0.4 | – |
| Nc1nc(-c2cccc(O)c2)nc2sc(Cc3ccccc3F)nc12 [compound 17, 3-(7-Amino-2-(2-fluorobenzyl)thiazolo[5,4-d]pyrimidin-5-yl)phenol] | 456 ± 15 | 0.5 ± 0.1 | 3240 ± 136 | – | – |
| N#Cc1cccc(-c2nc(N)c3nc(Cc4ccccc4F)sc3n2)c1 [compound 16, 3-(7-Amino-2-(2-fluorobenzyl)thiazolo[5,4-d]pyrimidin-5-yl)benzonitrile] | 95.5 ± 1.5 | 21.5 ± 5.1 | 1510 ± 121 | 1.4 ± 0.3 | – |
